# Data reported in US9765035B2 (priority 2013, dated 2017).
# Like-named read-outs stand apart in the source and are kept apart here.
# Experiments:
# [1] = target: human PRMT6 (Homo sapiens, UniProt Q96LA8); assay: biochemical
# Description: General Materials. S-adenosylmethionine (SAM), S-adenosylhomocysteine (SAH), bicine, Tween20, dimethylsulfoxide (DMSO), bovine skin gelatin (BSG), sodium butyrate and Tris(2-carboxyethyl)phosphine hydrochloride solution (TCEP) were purchased from Sigma-Aldrich at the highest level of purity possible. ^3H-SAM was purchase from American Radiolabeled Chemicals with a specific activity of 80 Ci/mmol. 384-well streptavidin Flashplates were purchased from PerkinElmer.
# Substrates. Peptide representative of human histone H4 residues 36-50 was synthesized with an N-terminal linker-affinity tag motif and a C-terminal amide cap by 21st Century Biochemicals. The peptide was purified by high-performance liquid chromatography (HPLC) to greater than 95% purity and confirmed by liquid chromatography mass spectrometry (LC-MS). The sequence was Biot-Ahx-[…]-amide and contained a monomethylated lysine at position 44 (SEQ ID NO.:5).
# Molecular Biology: Full-length human PRMT6 (NM_018137.2) transcript clone was amplified from an HEK 293 cDNA library, incorporating a flanking 5′ sequence encoding a FLAG tag ([…]) (SEQ ID NO.:6) fused directly to Ser 2 of PRMT6 and a 3′ sequence encoding a hexa His sequence (HHHHHH) (SEQ ID NO.: 17) fused directly to Asp 375. The amplified gene was subcloned into pFastBacMam (Viva Biotech).
# Protein Expression. Recombinant baculovirus were generated according to Bac-to-Bac kit instructions (Life Technologies). […] Infections were carried out at 37° C. for 48 hours, harvested by centrifugation, and stored at −80° C. for purification.
# Protein Purification. […] Column was washed with 20 mM imidazole in the same buffer and Flag-PRMT6-His was eluted with 150 mM imidazole. Pooled fractions were dialysed against buffer Ni-A and further purified by anti-flag M2 affinity chromatography. Flag-PRMT6-His was eluted with 200 ug/ml FLAG peptide in the same buffer. Pooled fractions were dialysed in 20 mM Tris, 150 mM NaCl, 10% glycerol and 5 mM β-mercaptoethanol, pH 7.8. The purity of recovered protein was 95%.
# General Procedure for PRMT6 Enzyme Assays on Peptide Substrates. The assays were all performed in a buffer consisting of 20 mM Bicine (pH=7.6), 1 mM TCEP, 0.005% BSG, and 0.002% Tween 20, prepared on the day of use. Compounds in 100% DMSO (1 ul) were spotted into a polypropylene 384-well V-bottom plates (Greiner) using a Platemate Plus outfitted with a 384-channel head (Thermo Scientific). DMSO (1 ul) was added to Columns 11, 12, 23, 24, rows A-H for the maximum signal control and 1 ul of SAH, a known product and inhibitor of PRMT6, was added to columns 11, 12, 23, 24, rows I-P for the minimum signal control. A cocktail (40 ul) containing the PRMT6 enzyme was added by Multidrop Combi (Thermo-Fisher). The compounds were allowed to incubate with PRMT6 for 30 min at room temperature, then a cocktail (10 ul) containing SAM and peptide was added to initiate the reaction (final volume=51 ul). The final concentrations of the components were as follows: PRMT6 was 1 nM, ^3H-SAM was 200 nM, non-radiolabeled SAM was 250 nM, peptide was 75 nM, SAH in the minimum signal control wells was 1 mM, and the DMSO concentration was 2%. The assays were stopped by the addition of non-radiolabeled SAM (10 ul) to a final concentration of 400 uM, which dilutes the ^3H-SAM to a level where its incorporation into the peptide substrate is no longer detectable. 50 ul of the reaction in the 384-well polypropylene plate was then transferred to a 384-well Flashplate and the biotinylated peptides were allowed to bind to the streptavidin surface for at least 1 hour before being washed once with 0.1% Tween20 in a Biotek EL×405 plate washer. The plates were then read in a PerkinElmer TopCount plate reader to measure the quantity of ^3H-labeled peptide bound to the Flashplate surface, measured as disintegrations per minute (dpm) or alternatively, referred to as counts per minute (cpm). […]
# [2] = tested on: RKO cells, mono-methyl arginine; assay: RKO Methylation Assay (In Cell Western for mono-methyl arginine); assay type: cell-based; settings: Homo sapiens
# Description: RKO adherent cells were purchased from ATCC (American Type Culture Collection), Manassas, Va., USA. DMEM/Glutamax medium, penicillin-streptomycin, heat inactivated fetal bovine serum, 0.05% trypsin and D-PBS were purchased from Life Technologies, Grand Island, N.Y., USA. Odyssey blocking buffer, 800CW goat anti-rabbit IgG (H+L) antibody, and Licor Odyssey infrared scanner were purchased from Licor Biosciences, Lincoln, Nebr., USA. Mono-methyl arginine antibody was purchased from Cell Signaling Technology, Danvers, Mass., USA. Methanol was purchased from VWR, Franklin, Mass., USA. 10% Tween 20 was purchased from KPL, Inc., Gaithersburg, Md., USA. DRAQ5 was purchased from Biostatus Limited, Leicestershire, UK.
# RKO adherent cells were maintained in growth medium (DMEM/Glutamax medium supplemented with 10% v/v heat inactivated fetal bovine serum and 100 units/mL penicillin-streptomycin) and cultured at 37° C. under 5% CO2.
# Cell Treatment, in Cell Western (ICW) for Detection of Mono-Methyl Arginine and DNA Content. […] Compound (100 nL) from a 96-well source plate was added directly to 384 well cell plate. Plates were incubated at 37° C., 5% CO2 for 72 hours. After three days of incubation, plates were brought to room temperature outside of the incubator for ten minutes and blotted on paper towels to remove cell media. 50 μL of ice cold 100% methanol was added directly to each well and incubated for 30 min at room temperature. After 30 min, plates were transferred to a Biotek EL406 plate washer and washed 2 times with 100 μL per well of wash buffer (1×PBS). Next 60 μL per well of Odyssey blocking buffer (Odyssey Buffer with 0.1% Tween 20 (v/v)) were added to each plate and incubated 1 hour at room temperature. Blocking buffer was removed and 20 μL per well of primary antibody was added (mono-methyl arginine diluted 1:200 in Odyssey buffer with 0.1% Tween 20 (v/v)) and plates were incubated overnight (16 hours) at 4° C. Plates were washed 5 times with 100 μL per well of wash buffer. […] The plates were washed 5 times with 100 μL per well wash buffer then 2 times with 100 μL per well of water. Plates were allowed to dry at room temperature then imaged on the Licor Odyssey machine which measures integrated intensity at 700 nm and 800 nm wavelengths. Both 700 and 800 channels were scanned.
# Calculations: First, the ratio for each well was determined by:
# Each plate included fourteen control wells of DMSO only treatment (minimum activation) as well as fourteen control wells for maximum activation treated with 20 μM of a reference compound. The average of the ratio values for each control type was calculated and used to determine the percent activation for each test well in the plate. Reference compound was serially diluted three-fold in DMSO for a total of nine test concentrations, beginning at 20 μM. Percent activation was determined and EC30 curves were generated using triplicate wells per concentration of compound.
# [3] = biochemical evaluation, peptide substrate, read-out: PRMT6 IC50
# [4] = single experiment or average of multiple experiments, read-out: PRMT6 biochemical evaluation (numerical)
# [5] = RKO, 72 h, read-out: RGG ICW EC30
# [6] = In Cell Western EC30, RKO cells, 72 hours, single experiment or average of multiple experiments, read-out: RGG ICW
# [7] = In Cell Western, RKO cells, 72 hours, read-out: RGG ICW EC30
# Chain of human PRMT6 (Q96LA8 with tags, fused parts or gaps): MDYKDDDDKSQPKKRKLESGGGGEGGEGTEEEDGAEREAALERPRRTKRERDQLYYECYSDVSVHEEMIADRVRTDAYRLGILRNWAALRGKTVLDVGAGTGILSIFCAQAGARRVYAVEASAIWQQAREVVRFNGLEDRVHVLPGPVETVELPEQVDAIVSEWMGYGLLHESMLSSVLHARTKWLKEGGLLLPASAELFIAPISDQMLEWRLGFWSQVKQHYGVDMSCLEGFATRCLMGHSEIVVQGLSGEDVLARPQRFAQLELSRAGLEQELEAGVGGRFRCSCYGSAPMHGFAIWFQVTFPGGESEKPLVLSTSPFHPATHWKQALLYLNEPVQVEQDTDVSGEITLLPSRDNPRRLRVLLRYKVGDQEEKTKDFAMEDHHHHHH
Compound,"IC50 [1, 3]","IC50 [1, 4]","EC30 ([2]; RKO, 72 h, read-out: RGG ICW)","EC30 [2, 5]","EC30 [2, 6]","EC30 [2, 7]"
CNCCN(C)Cc1n[nH]c2ccc(Oc3ccc(C(F)(F)F)cc3)cc12 [Compound 39],101 to 1000 nM,694 nM,> 20000 nM,> 12000 nM,,
CNCCN(C)Cc1n[nH]c2ccc(OC)cc12 [Compound 35],3010 to 10000 nM,35.7 nM,,,> 20000 nM,> 12000 nM
CNCCN(C)Cc1n[nH]c2ccc(Oc3cccc(OC)c3)cc12 [Compound 22],< 100 nM,33.1 nM,,,1490 nM,< 3000 nM
CNCCN(C)Cc1n[nH]c2ccc(OCC(C)c3ccccc3)cc12 (stereo not drawn) [Compound 19],< 100 nM,19.3 nM,,,680 nM,< 3000 nM
"CNCCN(C)Cc1n[nH]c2ccc(OCCOC)cc12 [Compound 5, N^1-((5-(2-methoxyethoxy)-1H-indazol-3-yl)methyl)-N^1,N^2-dimethylethane-1,2-diamine]",< 100 nM,84.8 nM,,,11400 nM,3010 to 12000 nM
CNCCN(C)Cc1n[nH]c2ccc(OCc3cc[nH]n3)cc12 [Compound 17],< 100 nM,7.81 nM,,> 12000 nM,8990 nM,
CNCCN(C)Cc1n[nH]c2ccc(OC(C)Cc3ccccc3)cc12 (stereo not drawn) [Compound 9],< 100 nM,13.9 nM,,,3430 nM,3010 to 12000 nM
CNCCN(C)Cc1n[nH]c2ccc(OCc3cccc(C#N)c3)cc12 [Compound 14],< 100 nM,5.29 nM,,,4140 nM,3010 to 12000 nM
CNCCN(C)Cc1n[nH]c2ccc(OCc3ccccn3)cc12 [Compound 12],< 100 nM,44.1 nM,,,6060 nM,3010 to 12000 nM
CNCCN(C)Cc1n[nH]c2ccc(Oc3ccccc3Cl)cc12 [Compound 30],101 to 1000 nM,131 nM,7200 nM,3010 to 12000 nM,,
CNCCN(C)Cc1n[nH]c2ccc(OC3CCCCC3)cc12 [Compound 18],< 100 nM,10.3 nM,,,582 nM,< 3000 nM
CNCCN(C)Cc1nn(C)c2ccc(OCc3ccc(C#N)cc3)cc12 [Compound 32],< 100 nM,156 nM,8900 nM,3010 to 12000 nM,,
CNCCN(C)Cc1n[nH]c2ccc(OC3CCCC3)cc12 [Compound 11],< 100 nM,9.68 nM,,,724 nM,< 3000 nM
CNCCN(C)Cc1n[nH]c2ccc(OCc3ccn(CC(C)C)n3)cc12 [Compound 33],< 100 nM,1110 nM,,,9060 nM,3010 to 12000 nM
CNCCN(C)Cc1n[nH]c2ccc(Oc3cccc(C)c3)cc12 [Compound 26],101 to 1000 nM,201 nM,3070 nM,3010 to 12000 nM,,
CN(CCN)Cc1n[nH]c2ccc(OCc3ccccc3)cc12 [Compound 1B],< 100 nM,9.44 nM,,,1710 nM,< 3000 nM
CNCCN(C)Cc1n[nH]c2ccc(OCc3ccc(C(C)=O)cc3)cc12 [Compound 23],< 100 nM,96.6 nM,,,1760 nM,< 3000 nM
CNCCN(C)Cc1n[nH]c2cccc(OCCC(C)C)c12 [Compound 31],1010 to 3000 nM,135 nM,,,8240 nM,3010 to 12000 nM
CNCCN(C)Cc1n[nH]c2cccc(OCc3ccccc3)c12 [Compound 21],< 100 nM,21.5 nM,,,912 nM,< 3000 nM
CNCCN(C)Cc1n[nH]c2ccc(Oc3ccccc3OC)cc12 [Compound 24],101 to 1000 nM,80.3 nM,1930 nM,< 3000 nM,,
"CNCCN(C)Cc1n[nH]c2ccc(O)cc12 [Compound 36, 3-((methyl(2-(methylamino)ethyl)amino)methyl)-1H-indazol-5-ol]",1010 to 3000 nM,6670 nM,,,> 20000 nM,> 12000 nM
CNCCN(C)Cc1n[nH]c2ccc(OCCCOC)cc12 [Compound 6],< 100 nM,39.3 nM,,,1550 nM,< 3000 nM
"CNCCN(C)Cc1n[nH]c2ccc(Oc3ccccc3)cc12 [Compound 10, N^1,N^2-dimethyl-N^1-((5-phenoxy-1H-indazol-3-yl)methyl)ethane-1,2-diamine]",101 to 1000 nM,125 nM,,,3830 nM,3010 to 12000 nM
CNCCN(C)Cc1n[nH]c2ccc(Oc3ccc(C#N)cc3)cc12 [Compound 37],101 to 1000 nM,4840 nM,,,> 20000 nM,> 12000 nM
CNCCN(C)Cc1n[nH]c2ccc(OCc3ccc(C#N)cc3)cc12 [Compound 13],< 100 nM,4.47 nM,,,3820 nM,3010 to 12000 nM
CNCCN(C)Cc1n[nH]c2ccc(Oc3cccc(C#N)c3)cc12 [Compound 28],101 to 1000 nM,150 nM,4620 nM,3010 to 12000 nM,,
"CC(C)COc1ccc2[nH]nc(CN(C)CCN)c2c1 [Compound 2, N1-((5-iso-butoxy-1H-indazol-3-yl)methyl)-N1-methylethane-1,2-diamine]",101 to 1000 nM,113 nM,,,4210 nM,3010 to 12000 nM
